Laboratory results taken from ChEMBL document CHEMBL1201862, “PubChem BioAssay data set” (2004).
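Where inhibition never reached the appropriate level, the endpoint shown equals the highest concentration tested. Otherwise, values were interpolated linearly from a five-concentration, 48-hour dose response in 96-well plates. At the GI50, growth is halved.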 The source made the active and inactive calls. Cut-off read from the data, not from the text of the source: active = GI50 up to about 1.1 µM and inactive = higher.

How the values were obtained:
Test in all cases: inhibition of tumour cell growth, NCI panel, 48 h
SNB-19 = test system: SNB-19
SF-268 = test system: SF-268
RPMI-8226 = test system: RPMI-8226
CAKI-1 = test system: CAKI-1
NCI-H522 = test system: NCI-H522
EKVX = test system: EKVX
HCT-116 = test system: HCT-116
CCRF-CEM = test system: CCRF-CEM
A498 = test system: A498
NCI/ADR-RES = test system: NCI/ADR-RES
HT-29 = test system: HT-29
SW-620 = test system: SW-620
NCI-H226 = test system: NCI-H226
OVCAR-3 = test system: OVCAR-3
Malme-3M = test system: Malme-3M
SN12C = test system: SN12C
RXF 393 = test system: RXF 393
NCI-H23 = test system: NCI-H23
A549 = test system: A549
MDA-MB-435 = test system: MDA-MB-435

SMILES | GI50 (SNB-19) | GI50 (SF-268) | GI50 (RPMI-8226) | GI50 (CAKI-1) | GI50 (NCI-H522) | GI50 (EKVX) | GI50 (HCT-116) | GI50 (CCRF-CEM) | GI50 (A498) | GI50 (NCI/ADR-RES) | GI50 (HT-29) | GI50 (SW-620) | GI50 (NCI-H226) | GI50 (OVCAR-3) | GI50 (Malme-3M) | GI50 (SN12C) | GI50 (RXF 393) | GI50 (NCI-H23) | GI50 (A549) | GI50 (MDA-MB-435)
COC(=O)C[C@](O)(CCC(C)(C)O)C(=O)O[C@@H]1C(OC)=C[C@]23CCCN2CCc2cc4c(cc2[C@H]13)OCO4 [HARRINGTONINE] | 0.0509 µM (active) | 0.148 µM (active) | 0.0566 µM (active) | 0.193 µM (active) | 0.0206 µM (active) | 0.0802 µM (active) | 0.0336 µM (active) | 0.0508 µM (active) | 0.073 µM (active) | 7.74 µM (inactive) | 0.0661 µM (active) | 0.119 µM (active) | 0.0306 µM (active) | 0.0598 µM (active) | 0.0284 µM (active) | 0.212 µM (active) | 0.103 µM (active) | 0.0863 µM (active) | 0.0579 µM (active) | 
CCN(CC)CCC(=O)c1ccc(Oc2ccc(F)cc2)cc1 | 18 µM (inactive) | 18.3 µM (inactive) | 4.57 µM (inactive) | 17.1 µM (inactive) |  | 20.6 µM (inactive) | 16.6 µM (inactive) | 20.6 µM (inactive) |  | 26.2 µM (inactive) | 19.8 µM (inactive) | 18.4 µM (inactive) | > 100 µM (inactive) | 17.1 µM (inactive) | 18.5 µM (inactive) | 18.2 µM (inactive) | 16.2 µM (inactive) | 20.6 µM (inactive) | > 100 µM (inactive) | 17.5 µM (inactive)
CC1(C)COC(c2cccc(C(=O)c3ccccc3)c2)=N1 | 51.4 µM (inactive) | 90.4 µM (inactive) | 36.8 µM (inactive) | 46.7 µM (inactive) | 16.8 µM (inactive) | 34.9 µM (inactive) | > 100 µM (inactive) | 39.4 µM (inactive) |  | 31.6 µM (inactive) | 33.1 µM (inactive) | > 100 µM (inactive) |  | 24.7 µM (inactive) | 46.3 µM (inactive) | 32 µM (inactive) |  | 34.1 µM (inactive) | 55.2 µM (inactive) | 
CC(OC(=O)NCn1cc(-c2ccccc2)nn1)c1ccccc1 (centres undefined) | > 100 µM (inactive) |  | 30.2 µM (inactive) | > 100 µM (inactive) | 27.4 µM (inactive) | 63.2 µM (inactive) | 27.9 µM (inactive) | 31.6 µM (inactive) |  | 33.7 µM (inactive) | 25.6 µM (inactive) | 58.7 µM (inactive) | 14.9 µM (inactive) |  | 30.3 µM (inactive) | 97.1 µM (inactive) |  | 27.1 µM (inactive) | 35.7 µM (inactive) | 28.8 µM (inactive)
COc1ccc(/N=N/c2c(C)c(C#N)c(=S)n(C3OC(COC(C)=O)C(OC(C)=O)C(OC(C)=O)C3OC(C)=O)c2C)cc1 (centres undefined) | > 100 µM (inactive) | > 100 µM (inactive) | > 100 µM (inactive) | > 100 µM (inactive) |  |  | > 100 µM (inactive) | > 100 µM (inactive) |  | > 100 µM (inactive) | > 100 µM (inactive) | > 100 µM (inactive) |  | > 100 µM (inactive) | > 100 µM (inactive) | > 100 µM (inactive) | 62.5 µM (inactive) | > 100 µM (inactive) | > 100 µM (inactive) | > 10 µM (inactive)
COC1OCC(O)C(NC(=O)N(C)N=O)C1O (centres undefined) | > 100 µM (inactive) | > 100 µM (inactive) | > 100 µM (inactive) | > 100 µM (inactive) | > 100 µM (inactive) | > 100 µM (inactive) | > 100 µM (inactive) | > 100 µM (inactive) | > 100 µM (inactive) | > 100 µM (inactive) | > 100 µM (inactive) | > 100 µM (inactive) | > 100 µM (inactive) | > 100 µM (inactive) | > 100 µM (inactive) | > 100 µM (inactive) | > 100 µM (inactive) | > 100 µM (inactive) | > 100 µM (inactive) | 
COc1cc(/C=C/C(=O)OCCc2ccccc2)ccc1O | 17.9 µM (inactive) | 20.5 µM (inactive) | 20.5 µM (inactive) | 15.9 µM (inactive) | 5.4 µM (inactive) | 16.3 µM (inactive) | 17.7 µM (inactive) |  |  | 23.7 µM (inactive) | 21.3 µM (inactive) | 22.2 µM (inactive) |  | 18.1 µM (inactive) | 16.4 µM (inactive) | 19.8 µM (inactive) |  | 17.2 µM (inactive) | 18.4 µM (inactive) | 13.4 µM (inactive)
O=C(NO)c1ccc(O)c(O)c1 | > 100 µM (inactive) | > 100 µM (inactive) | 32.4 µM (inactive) | > 100 µM (inactive) | 79.4 µM (inactive) | > 100 µM (inactive) | > 100 µM (inactive) | 42.1 µM (inactive) | > 100 µM (inactive) |  | > 100 µM (inactive) | 47.6 µM (inactive) | > 100 µM (inactive) | > 100 µM (inactive) | > 100 µM (inactive) | > 100 µM (inactive) | > 100 µM (inactive) | > 100 µM (inactive) | > 100 µM (inactive) | 
COC1CCC2C(NS(=O)(=O)c3ccc(C)cc3)CCCC2O1.Cc1ccc(S(=O)(=O)NC(C)(C)C=O)cc1 (centres undefined) | 16.1 µM (inactive) | > 34.5 µM (inactive) | 6.21 µM (inactive) | 20.3 µM (inactive) | 9.02 µM (inactive) | 31 µM (inactive) | 7.33 µM (inactive) | 10.2 µM (inactive) | > 34.5 µM (inactive) |  | 11.4 µM (inactive) | > 34.5 µM (inactive) | 10.3 µM (inactive) | 13 µM (inactive) | 23 µM (inactive) | 23.5 µM (inactive) | 11.4 µM (inactive) | 11.1 µM (inactive) | 16.2 µM (inactive) | 
O=C1/C(=C/c2cccc(Br)c2)Cc2ccccc21 | 50.6 µM (inactive) | 53.6 µM (inactive) | 32.8 µM (inactive) | 75.7 µM (inactive) | 96.4 µM (inactive) | 27.7 µM (inactive) | 27.6 µM (inactive) | 58.7 µM (inactive) |  | 50.6 µM (inactive) | 45 µM (inactive) | > 100 µM (inactive) | 21.6 µM (inactive) | 41.6 µM (inactive) | > 100 µM (inactive) | > 100 µM (inactive) |  | 25.9 µM (inactive) | 26.8 µM (inactive) | 80 µM (inactive)
CC(C)c1ccc2nc3ccc(C(=O)NCCN(C)C)cn3c(=O)c2c1 | 35 µM (inactive) | 17.5 µM (inactive) |  | 23.1 µM (inactive) | 15.3 µM (inactive) | 16.4 µM (inactive) | 13.9 µM (inactive) | 14.9 µM (inactive) | 14 µM (inactive) | 18.2 µM (inactive) | 7.74 µM (inactive) | 14.7 µM (inactive) | 18 µM (inactive) | 29.2 µM (inactive) | 3.37 µM (inactive) | 14.8 µM (inactive) |  | 15.5 µM (inactive) | 17.4 µM (inactive) | 
CC(=O)c1c(CO[N+](=O)[O-])[n+]([O-])c2ccccc2[n+]1[O-] | > 100 µM (inactive) | > 100 µM (inactive) | 56.6 µM (inactive) | > 100 µM (inactive) | 31.8 µM (inactive) | > 100 µM (inactive) | 47.4 µM (inactive) | 37.9 µM (inactive) |  | > 100 µM (inactive) | > 100 µM (inactive) | 63.7 µM (inactive) | 34.2 µM (inactive) | 52.8 µM (inactive) | 53.7 µM (inactive) | 64.1 µM (inactive) |  | 45.5 µM (inactive) | > 100 µM (inactive) | 79.6 µM (inactive)
